This passage reports IC50 results from ChEMBL document CHEMBL5370612, “Cytotoxic Epipolythiodioxopiperazines from the Deep-Sea-Derived Fungus Exophiala mesophila MCCC 3A00939” (J Nat Prod, 2023).

Some results are limits rather than exact numbers.

The nature of data set [1]: Cytotoxicity against human L02 cells by SRB method. In kind it is toxicity, cell-based. (Sulforhodamine B stains cellular protein and so reports cell mass.)
A further data set deals with K562. Put plainly: Cytotoxicity against human K562 cells by MTT method. In kind it is functional, cell-based. On the technique in general: Tetrazolium assays rely on reduction of a dye to a coloured formazan, in cell work by metabolically active cells.
A further data set concerns ASPC1. Description: Cytotoxicity against human ASPC1 cells by SRB method. In kind it is functional, cell-based.
The next data set relates to H69AR. Description: Cytotoxicity against human NCI-H69AR cells by SRB method. In kind it is functional, cell-based.
A further data set concerns MDA-MB-231. Put plainly: Cytotoxicity against human MDA-MB-231 cells by SRB method. In kind it is functional, cell-based.

`COc1cccc2c1C(=O)c1c(O)c3c(c(O)c1C2=O)C[C@@](O)(C(=O)CO)C[C@@H]3O[C@H]1C[C@H](N)[C@H](O)[C@H](C)O1` [DOXORUBICIN]: the concentration for half-maximal inhibition (IC50) (in data set [1]; with K562; in the data set on ASPC1; in the data set on H69AR; in the data set on MDA-MB-231) was under 1 µM in each case.
Regarding `CS[C@@]12CC3=COC=C[C@H](OC(C)=O)[C@H]3N1C(=O)[C@]1(SC)CC3=COC=C[C@H](O)[C@H]3N1C2=O`, the IC50 (in data set [1]; with K562; in the data set on ASPC1; with H69AR; in the data set with MDA-MB-231) was over 30 µM each time.
Regarding `O=C(Cc1ccccc1)O[C@H]1C=COC=C2C[C@@]34SSSS[C@]5(CC6=COC=C[C@H](O)[C@H]6N5C3=O)C(=O)N4[C@@H]21`, the IC50 in data set [1] amounted to 18 µM; with K562, 3.1 µM; in the data set on ASPC1, 25 µM; with H69AR, 3.6 µM; in the data set on MDA-MB-231 it was 4.3 µM.
Regarding `CS[C@@]12CC3=COC=C[C@H](OC(C)=O)[C@H]3N1C(=O)[C@]1(SC)CC3=COC=C[C@H](OC(=O)CC(C)=C(C)C)[C@H]3N1C2=O`, the IC50 is over 30 µM in data set [1]; over 30 µM with K562; over 30 µM in the data set with ASPC1; over 30 µM in the data set on H69AR; 29 µM with MDA-MB-231.
With `CS[C@@]12CC3=COC=C[C@H](OC(C)=O)[C@H]3N1C(=O)[C@]1(SC)CC3=COC=C[C@H](OC(C)=O)[C@H]3N1C2=O`, the IC50 (in data set [1]; in the data set with K562; with ASPC1; in the data set on H69AR; in the data set on MDA-MB-231) was over 30 µM in each case.
On to `CS[C@@]12CC3=COC=C[C@H](OC(=O)CC(C)=C(C)C)[C@H]3N1C(=O)[C@]1(SC)CC3=COC=C[C@H](O)[C@H]3N1C2=O`, for which the IC50 (in data set [1]; in the data set on K562; with ASPC1; in the data set on H69AR; with MDA-MB-231) was over 30 µM in each case.
With `CS[C@@]12CC3=COC=C[C@H](O)[C@H]3N1C(=O)[C@]1(SC)CC3=COC=C[C@H](O)[C@H]3N1C2=O`, the IC50 (in data set [1]; in the data set on K562; in the data set on ASPC1; in the data set on H69AR; with MDA-MB-231) was over 30 µM throughout.
For `CC(C)=C(C)CC(=O)O[C@H]1C=COC=C2C[C@@]34SSSS[C@]5(CC6=COC=C[C@H](O)[C@H]6N5C3=O)C(=O)N4[C@@H]21`, the IC50 in data set [1] turned out to be 8.5 µM; in the data set on K562, 2.3 µM; in the data set with ASPC1 it was 13 µM; in the data set with H69AR, 5.9 µM; in the data set on MDA-MB-231, 3.7 µM.
The like results for `CC(=O)O[C@H]1C=COC=C2C[C@@]34SS[C@]5(CC6=COC=C[C@H](O)[C@H]6N5C3=O)C(=O)N4[C@@H]21` [ARANOTIN] were, in that order, 16 µM, 1.4 µM, 11 µM, 1.7 µM and 0.7 µM.

In general, IC50 refers to the concentration needed to halve the response being measured.
